Reference: US20090018111A1, “Novel Antimicrobial Medicament” (priority 2004, published 2009)
Read-outs that look alike come from different tables or passages of the source.

Experiments:
Experiment in all cases: Sensitivity test (agar dilution)
E. coli NIHJ JC-2 = type: cell-based, Escherichia coli; details: Escherichia coli
Method in brief: (§1)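 Standard Japanese agar dilution method. Drugs alone or combined were serially halved in Mueller Hinton agar, inoculated with overnight (37° C) cultures at about 10^6 CFU/ml. Values are MICs.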

P. vulgaris GN7919 = type: cell-based, Proteus vulgaris; details: Proteus vulgaris
Method in brief: as §1

P. vurgalis OX-19 = type: cell-based, Proteus vulgaris; details: Proteus vulgaris
Method in brief: as §1

E. aerogenes ATCC13048 = type: cell-based, Enterobacter aerogenes; details: Klebsiella aerogenes
Method in brief: as §1

`C[C@H]1C=C(c2csc(SC3=C(C(=O)O)N4C(=O)[C@H]([C@@H](C)O)[C@H]4[C@H]3C)n2)CN1` [SM, (4R,5S,6S)-6-[(1R)-1-Hydroxyethyl]-4-methyl-3-({4-[(5S)-5-methyl-2,5-dihydro-1H-pyrrol-3-yl]-1,3-thiazol-2-yl}sulfanyl)-7-oxo-1-azabicyclo[3.2.0]hept-2-ene-2-carboxylic acid] was tested, and the MIC (E. coli NIHJ JC-2; NIHJJC2, Concomitant (IPM:SM = 1:1), read-out: MIC) was 0.063 µg/mL, the MIC (E. coli NIHJ JC-2; NIHJJC2, Concomitant (MEPM:SM = 1:1), read-out: MIC) was ≤ 0.016 µg/mL and the MIC (E. coli NIHJ JC-2; NIHJJC2, Concomitant (MEPM:SM = 1:2), read-out: MIC) was ≤ 0.031 µg/mL. The MIC (E. coli NIHJ JC-2; NIHJJC2, Concomitant (MEPM:SM = 1:4), read-out: MIC) was ≤ 0.063 µg/mL, the MIC (E. coli NIHJ JC-2; NIHJJC2, Concomitant (PAPM:SM = 1:1), E. coli NIHJ JC-2, read-out: MIC concomitant) was 0.063 µg/mL and the MIC (E. coli NIHJ JC-2; NIHJJC2, Concomitant (PIPC:SM = 1:1), E. coli NIHJ JC-2, read-out: MIC concomitant) was 0.063 µg/mL. The MIC (E. coli NIHJ JC-2; NIHJJC2, Concomitant drug (MEPM:SM = 2:1), read-out: MIC) was ≤ 0.008 µg/mL, the MIC (E. coli NIHJ JC-2; NIHJJC2, alone, read-out: MIC) was 0.125 µg/mL and the MIC (E. coli NIHJ JC-2; NIHJJC2, drug alone, E. coli NIHJ JC-2, read-out: MIC alone) was 0.125 µg/mL. For the same molecule, the MIC (P. vulgaris GN7919; GN7919, Concomitant (AZT:SM = 1:1), P. vulgaris GN7919, read-out: MIC concomitant) was 0.25 µg/mL, the MIC (P. vulgaris GN7919; GN7919, Concomitant (BIPM:SM = 1:1), P. vulgaris GN7919, read-out: MIC concomitant) was 0.25 µg/mL and the MIC (P. vulgaris GN7919; GN7919, Concomitant (CAZ:SM = 1:1), P. vulgaris GN7919, read-out: MIC concomitant) was 0.5 µg/mL. For the same molecule, the MIC (P. vulgaris GN7919; GN7919, Concomitant (CPFX:SM = 1:1), P. vulgaris GN7919, read-out: MIC concomitant) was 0.016 µg/mL, the MIC (P. vulgaris GN7919; GN7919, Concomitant (DRPM:SM = 1:1), P. vulgaris GN7919, read-out: MIC concomitant) was 0.063 µg/mL and the MIC (P. vulgaris GN7919; GN7919, Concomitant (IPM:SM = 1:1), read-out: MIC) was 0.5 µg/mL. The MIC (P. vulgaris GN7919; GN7919, Concomitant (MEPM:SM = 1:1), read-out: MIC) was 0.031 µg/mL, the MIC (P. vulgaris GN7919; GN7919, Concomitant (MEPM:SM = 1:2), read-out: MIC) was 0.063 µg/mL and the MIC (P. vulgaris GN7919; GN7919, Concomitant (MEPM:SM = 1:4), read-out: MIC) was 0.125 µg/mL. For the same molecule, the MIC (P. vulgaris GN7919; GN7919, Concomitant (PAPM:SM = 1:1), P. vulgaris GN7919, read-out: MIC concomitant) was 0.5 µg/mL, the MIC (P. vulgaris GN7919; GN7919, Concomitant (PIPC:SM = 1:1), P. vulgaris GN7919, read-out: MIC concomitant) was 0.5 µg/mL and the MIC (P. vulgaris GN7919; GN7919, Concomitant drug (MEPM:SM = 2:1), read-out: MIC) was 0.016 µg/mL. It also gave an MIC (P. vulgaris GN7919; GN7919, alone, read-out: MIC) of 1 µg/mL, an MIC (P. vulgaris GN7919; GN7919, drug alone, P. vulgaris GN7919, read-out: MIC alone) of 1 µg/mL and an MIC (P. vurgalis OX-19; OX19, Concomitant (IPM:SM = 1:1)) of 0.063 µg/mL. The MIC (P. vurgalis OX-19; OX19, Concomitant (MEPM:SM = 1:1)) was ≤ 0.016 µg/mL, the MIC (P. vurgalis OX-19; OX19, Concomitant (MEPM:SM = 1:2)) was ≤ 0.031 µg/mL and the MIC (P. vurgalis OX-19; OX19, Concomitant (MEPM:SM = 1:4)) was ≤ 0.063 µg/mL. It also gave an MIC (P. vurgalis OX-19; OX19, Concomitant drug (MEPM:SM = 2:1)) of 0.016 µg/mL, an MIC (P. vurgalis OX-19; OX19, alone) of 0.063 µg/mL and an MIC (P. vurgalis OX-19; OX19, read-out: MIC concomitant, Concomitant (AZT:SM = 1:1), P. vurgalis OX-19) of 0.004 µg/mL. It also gave an MIC (P. vurgalis OX-19; OX19, read-out: MIC concomitant, Concomitant (BIPM:SM = 1:1), P. vurgalis OX-19) of 0.031 µg/mL, an MIC (P. vurgalis OX-19; OX19, read-out: MIC concomitant, Concomitant (CAZ:SM = 1:1), P. vurgalis OX-19) of 0.008 µg/mL and an MIC (P. vurgalis OX-19; OX19, read-out: MIC concomitant, Concomitant (CPFX:SM = 1:1), P. vurgalis OX-19) of 0.008 µg/mL. The MIC (P. vurgalis OX-19; OX19, read-out: MIC concomitant, Concomitant (DRPM:SM = 1:1), P. vurgalis OX-19) was 0.031 µg/mL, the MIC (P. vurgalis OX-19; OX19, read-out: MIC concomitant, Concomitant (PAPM:SM = 1:1), P. vurgalis OX-19) was 0.063 µg/mL and the MIC (P. vurgalis OX-19; OX19, read-out: MIC concomitant, Concomitant (PIPC:SM = 1:1), P. vurgalis OX-19) was ≤ 0.002 µg/mL. It also gave an MIC (E. aerogenes ATCC13048; ATCC13048, Concomitant (AZT:SM = 1:1), E. aerogenes ATCC13048, read-out: MIC concomitant) of 8 µg/mL, an MIC (E. aerogenes ATCC13048; ATCC13048, Concomitant (BIPM:SM = 1:1), E. aerogenes ATCC13048, read-out: MIC concomitant) of 0.063 µg/mL and an MIC (E. aerogenes ATCC13048; ATCC13048, Concomitant (CAZ:SM = 1:1), E. aerogenes ATCC13048, read-out: MIC concomitant) of 8 µg/mL. It also gave an MIC (E. aerogenes ATCC13048; ATCC13048, Concomitant (CPFX:SM = 1:1), E. aerogenes ATCC13048, read-out: MIC concomitant) of 0.031 µg/mL, an MIC (E. aerogenes ATCC13048; ATCC13048, Concomitant (DRPM:SM = 1:1), E. aerogenes ATCC13048, read-out: MIC concomitant) of 0.031 µg/mL and an MIC (E. aerogenes ATCC13048; ATCC13048, Concomitant (IPM:SM = 1:1), read-out: MIC) of 0.125 µg/mL. The MIC (E. aerogenes ATCC13048; ATCC13048, Concomitant (MEPM:SM = 1:1), read-out: MIC) was ≤ 0.016 µg/mL, the MIC (E. aerogenes ATCC13048; ATCC13048, Concomitant (MEPM:SM = 1:2), read-out: MIC) was 0.063 µg/mL and the MIC (E. aerogenes ATCC13048; ATCC13048, Concomitant (MEPM:SM = 1:4), read-out: MIC) was 0.125 µg/mL. The MIC (E. aerogenes ATCC13048; ATCC13048, Concomitant (PAPM:SM = 1:1), E. aerogenes ATCC13048, read-out: MIC concomitant) was 0.25 µg/mL.
